Results taken from ChEMBL document CHEMBL1156730, “Structure-activity relationships of new inhibitors of breast cancer resistance protein (ABCG2)” (Bioorg Med Chem, 2008).

Molecular target: T1, Broad substrate specificity ATP-binding cassette transporter ABCG2 (Homo sapiens, UniProt Q9UNQ0)
T1 sequence (Q9UNQ0 whole entry): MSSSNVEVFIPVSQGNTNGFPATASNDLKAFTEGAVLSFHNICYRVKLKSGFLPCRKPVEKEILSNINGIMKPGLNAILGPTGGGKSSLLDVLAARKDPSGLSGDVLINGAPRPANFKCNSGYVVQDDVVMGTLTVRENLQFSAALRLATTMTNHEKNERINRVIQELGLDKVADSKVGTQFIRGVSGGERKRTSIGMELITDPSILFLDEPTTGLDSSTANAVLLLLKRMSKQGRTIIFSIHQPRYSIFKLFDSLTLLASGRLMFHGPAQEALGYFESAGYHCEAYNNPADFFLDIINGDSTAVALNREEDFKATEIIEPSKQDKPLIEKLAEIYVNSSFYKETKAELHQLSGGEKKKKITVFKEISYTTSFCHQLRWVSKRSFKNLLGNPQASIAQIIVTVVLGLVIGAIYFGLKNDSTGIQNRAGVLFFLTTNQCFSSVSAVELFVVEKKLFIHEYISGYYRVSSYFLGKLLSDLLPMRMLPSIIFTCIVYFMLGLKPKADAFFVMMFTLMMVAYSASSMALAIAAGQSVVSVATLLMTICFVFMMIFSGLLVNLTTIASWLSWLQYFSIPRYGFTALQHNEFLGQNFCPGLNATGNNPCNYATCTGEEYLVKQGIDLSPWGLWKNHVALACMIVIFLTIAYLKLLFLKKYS
Assay: Inhibition of ABCG2 in human mitoxantrone-resistant MCF7 cells by Hoechst 33342 assay
Format: cell-based
Details: not given; call rule not given here

Row | Compound | IC50 [µM]
1 | Nc1ccccc1C(=O)Nc1ccc(CCN2CCc3ccccc3C2)cc1 | 74.1
2 | COC(=O)C1=C(C)NC(C)=C(C(=O)OCCN(C)Cc2ccccc2)C1c1cccc([N+](=O)[O-])c1 (stereo unspecified) [NICARDIPINE] | 16.6
3 | COc1cc2c(cc1OC)CN(CCc1ccc(NC(=O)c3cnc4ccccc4c3)cc1)CC2 | 24
4 | COc1cc2c(cc1OC)CN(CCc1ccc(NC(=O)c3ccc([N+](=O)[O-])cc3)cc1)CC2 | 7.59
5 | COc1ccc(CCN(C)CCCC(C#N)(c2ccc(OC)c(OC)c2)C(C)C)cc1OC (stereo unspecified) | 525
6 | COc1ccc([C@@H]2Sc3ccccc3N(CCN(C)C)C(=O)[C@@H]2OC(C)=O)cc1 [DILTIAZEM] | 851
7 | COc1cc2c(cc1OC)CN(CCc1ccc(NC(=O)c3ccccc3N)cc1)CC2 | 85.1
8 | COc1ccc(C(=O)Nc2ccccc2C(=O)Nc2ccc(CCN3CCc4cc(OC)c(OC)cc4C3)cc2)cc1OC | 2.09
9 | COc1cc2c(cc1OC)CN(CCc1ccc(NC(=O)c3ccccc3)cc1)CC2 | 24.5
10 | COc1cc2c(cc1OC)CN(CCc1ccc(NC(=O)c3ccccc3[N+](=O)[O-])cc1)CC2 | 110
11 | O=C(Nc1ccc(CCN2CCc3ccccc3C2)cc1)c1ccc([N+](=O)[O-])cc1 | 6.61
12 | COc1cc2c(cc1OC)CN(CCc1ccc(NC(=O)c3ccccc3NC(=O)c3ccc(C)cc3)cc1)CC2 | 3.89
13 | COc1cc2c(cc1OC)CN(CCc1ccc(NC(=O)c3ccccc3NC(=O)c3ccccc3)cc1)CC2 | 3.98
14 | COc1cc2c(cc1OC)CN(CCc1ccc(NC(=O)c3ccccc3Br)cc1)CC2 | 21.9
15 | COc1cc2c(cc1OC)CN(CCc1ccc(NC(=O)c3cc(OC)c(OC)cc3[N+](=O)[O-])cc1)CC2 | 64.6
16 | O=C(Nc1ccccc1C(=O)Nc1ccc(CCN2CCc3ccccc3C2)cc1)c1cnc2ccccc2c1 | 1
17 | COc1cc2c(cc1OC)CN(CCc1ccc(NC(=O)c3cccc(Br)c3)cc1)CC2 | 22.9
18 | COc1cc2c(cc1OC)CN(CCc1ccc(NC(=O)c3ccc4ncccc4c3)cc1)CC2 | 14.5

Row | Compound | IC50 [µM]
19 | COc1cc2c(cc1OC)CN(CCc1ccc(NC(=O)c3cccnc3)cc1)CC2 | 44.7
20 | COc1cc2c(cc1OC)CN(CCc1ccc(NC(=O)c3cnc4ccccc4n3)cc1)CC2 | 6.03
21 | COc1ccc(C(=O)Nc2ccc(CCN3CCc4cc(OC)c(OC)cc4C3)cc2)cc1OC | 47.9
22 | COC(=O)[C@H]1[C@H]2C[C@@H]3c4[nH]c5cc(OC)ccc5c4CCN3C[C@H]2C[C@@H](OC(=O)c2cc(OC)c(OC)c(OC)c2)[C@@H]1OC [RESERPINE] | 26.3
23 | O=C(Nc1ccc(CCN2CCc3ccccc3C2)cc1)c1cnc2ccccc2c1 | 5.01
24 | COc1cc2c(cc1OC)CN(CCc1ccc(NC(=O)c3ccccc3NC(=O)c3cnc4ccccc4c3)cc1)CC2 | 5.01
25 | COc1cc2c(cc1OC)CN(CCc1ccc(NC(=O)c3ccc(Br)cc3)cc1)CC2 | 11.5
26 | COc1cc2c(cc1OC)CN(CCc1ccc(NC(=O)C3Oc4ccccc4O3)cc1)CC2 | 15.1
27 | COc1cc2c(cc1OC)CN(CCc1ccc(NC(=O)c3cccc4ccccc34)cc1)CC2 | 12.9
28 | COc1cc2c(cc1OC)CN(CCc1ccc(NC(=O)c3ccc(N)cc3)cc1)CC2 | 263
29 | COc1cc2c(cc1OC)CN(CCc1ccc(NC(=O)c3ccc4ccccc4c3)cc1)CC2 | 7.24
30 | COc1cc2c(cc1OC)CN(CCc1ccc(NC(=O)c3cc4ccccc4cn3)cc1)CC2 | 6.03
31 | COc1cc2c(cc1OC)CN(CCc1ccc(NC(=O)c3cc(OC)c(OC)cc3NC(=O)c3cnc4ccccc4c3)cc1)CC2 | 1.45
32 | Nc1ccc(C(=O)Nc2ccc(CCN3CCc4ccccc4C3)cc2)cc1 | 77.6
33 | O=C(Nc1ccc(CCN2CCc3ccccc3C2)cc1)c1ccccc1[N+](=O)[O-] | 79.4
34 | CC(=O)[C@H]1CC[C@H]2[C@@H]3CCC4=CC(=O)CC[C@]4(C)[C@H]3CC[C@]12C [PROGESTERONE] | 126
35 | COc1cc2c(cc1OC)CN(CCc1ccc(NC(=O)c3ccnc4ccccc34)cc1)CC2 | 36.3

Molecular target: ATP-dependent translocase ABCB1 (Homo sapiens, UniProt P08183)
Assay: Inhibition of P-gp in human adriamycin-resistant A2780 cells by Hoechst 33342 assay
Format: cell-based
Details: not given

Sequence of ATP-dependent translocase ABCB1 (P08183 whole entry): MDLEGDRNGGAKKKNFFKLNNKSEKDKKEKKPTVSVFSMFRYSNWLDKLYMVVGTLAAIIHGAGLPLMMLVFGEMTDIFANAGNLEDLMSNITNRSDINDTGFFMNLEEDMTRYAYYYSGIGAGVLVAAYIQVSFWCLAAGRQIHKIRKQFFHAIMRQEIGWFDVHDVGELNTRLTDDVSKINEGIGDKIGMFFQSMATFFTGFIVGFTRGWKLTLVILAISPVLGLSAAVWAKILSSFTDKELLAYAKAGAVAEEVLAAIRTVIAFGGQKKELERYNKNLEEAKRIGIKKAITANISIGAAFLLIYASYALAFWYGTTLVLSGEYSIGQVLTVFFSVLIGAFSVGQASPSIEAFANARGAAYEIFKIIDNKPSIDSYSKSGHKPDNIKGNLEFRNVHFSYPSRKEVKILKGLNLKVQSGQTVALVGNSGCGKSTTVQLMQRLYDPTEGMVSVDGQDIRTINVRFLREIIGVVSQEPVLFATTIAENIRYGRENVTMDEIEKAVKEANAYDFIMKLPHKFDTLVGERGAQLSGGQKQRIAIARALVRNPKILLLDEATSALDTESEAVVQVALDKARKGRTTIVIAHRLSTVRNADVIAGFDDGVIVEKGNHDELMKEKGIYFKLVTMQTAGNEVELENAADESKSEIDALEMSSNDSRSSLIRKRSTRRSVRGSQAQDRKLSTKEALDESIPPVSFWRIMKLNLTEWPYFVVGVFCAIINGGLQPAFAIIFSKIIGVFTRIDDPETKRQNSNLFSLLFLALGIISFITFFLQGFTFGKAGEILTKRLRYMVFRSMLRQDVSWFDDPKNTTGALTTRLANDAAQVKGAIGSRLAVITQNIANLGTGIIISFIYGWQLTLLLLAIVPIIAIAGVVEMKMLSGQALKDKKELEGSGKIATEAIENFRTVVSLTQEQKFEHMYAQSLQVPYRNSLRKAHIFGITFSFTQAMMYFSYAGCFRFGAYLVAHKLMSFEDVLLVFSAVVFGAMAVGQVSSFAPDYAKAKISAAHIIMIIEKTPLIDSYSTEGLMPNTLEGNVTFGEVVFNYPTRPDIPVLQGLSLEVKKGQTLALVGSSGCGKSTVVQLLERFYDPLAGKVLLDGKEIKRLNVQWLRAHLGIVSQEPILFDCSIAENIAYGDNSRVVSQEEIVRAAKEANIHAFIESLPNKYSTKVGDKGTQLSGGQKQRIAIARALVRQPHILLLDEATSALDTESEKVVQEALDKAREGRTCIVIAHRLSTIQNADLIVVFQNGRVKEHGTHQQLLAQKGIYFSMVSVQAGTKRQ

Row | Compound | IC50 [µM]
36 | COc1cc2c(cc1OC)CN(CCc1ccc(NC(=O)c3ccccc3)cc1)CC2 | 4.79
37 | COc1cc2c(cc1OC)CN(CCc1ccc(NC(=O)C3Oc4ccccc4O3)cc1)CC2 | 1.41
38 | COc1cc2c(cc1OC)CN(CCc1ccc(NC(=O)c3cc(OC)c(OC)cc3NC(=O)c3cnc4ccccc4c3)cc1)CC2 | 0.0724

Molecular target: T1, Broad substrate specificity ATP-binding cassette transporter ABCG2
Assay: Inhibition of ABCG2 in human mitoxantrone-resistant MCF7 cells by Hoechst 33342 assay using one phase exponential association analysis
Format: cell-based
Details: not given

Row | Compound | IC50 [µM]
39 | O=C(Nc1ccccc1C(=O)Nc1ccc(CCN2CCc3ccccc3C2)cc1)c1cnc2ccccc2c1 | 0.676

Molecular target: T1, Broad substrate specificity ATP-binding cassette transporter ABCG2
Assay: Inhibition of ABCG2 in human mitoxantrone-resistant MCF7 cells at 5.6 uM by Hoechst 33342 assay
Format: cell-based
Details: mcf7, 5.6 µM

Row | Compound | Activity
40 | O=C(Nc1ccccc1C(=O)Nc1ccc(CCN2CCc3ccccc3C2)cc1)c1cnc2ccccc2c1 | Active

Molecular target: T1, Broad substrate specificity ATP-binding cassette transporter ABCG2
Assay: Inhibition of ABCG2 in human mitoxantrone-resistant MCF7 cells by Hoechst 33342 assay using linear regression analysis
Format: cell-based
Details: not given

Row | Compound | IC50 [µM]
41 | O=C(Nc1ccccc1C(=O)Nc1ccc(CCN2CCc3ccccc3C2)cc1)c1cnc2ccccc2c1 | 0.832
